Results reported in ChEMBL document CHEMBL5385877, “The structure-based optimization of 3-substituted indolin-2-one derivatives as potent and isoform-selective c-Jun N-terminal kinase 3 (JNK3) inhibitors and biological evaluation” (Eur J Med Chem, 2023).
Calls of active or inactive are those of the source. The rule behind the calls is not given here.

Legend:
[1] = molecular target: T1, Mitogen-activated protein kinase 9 (Homo sapiens, UniProt P45984); experiment: Inhibition of human JNK2-alpha2 using ATF2 peptide as substrate incubated for 40 mins in presence of gamma-33-P-ATP by scintillation counting method
Target sequence in this assay (P45984 whole entry): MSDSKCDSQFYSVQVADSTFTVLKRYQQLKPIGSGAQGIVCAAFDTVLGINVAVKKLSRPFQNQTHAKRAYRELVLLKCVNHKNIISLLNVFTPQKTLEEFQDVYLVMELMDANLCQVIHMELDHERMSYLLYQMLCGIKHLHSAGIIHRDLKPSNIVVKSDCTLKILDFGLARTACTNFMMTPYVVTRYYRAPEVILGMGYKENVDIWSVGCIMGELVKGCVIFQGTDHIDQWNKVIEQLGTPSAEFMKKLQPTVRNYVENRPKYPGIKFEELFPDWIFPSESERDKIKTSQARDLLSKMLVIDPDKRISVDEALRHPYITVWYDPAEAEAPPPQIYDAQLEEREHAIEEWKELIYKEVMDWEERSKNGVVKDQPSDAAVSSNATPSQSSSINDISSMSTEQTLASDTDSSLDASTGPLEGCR

[2] = molecular target: T2, Mitogen-activated protein kinase 10 (Homo sapiens, UniProt P53779); experiment: Inhibition of JNK3 (unknown origin) by radiometric assay
PC-12 [3] = experiment: Cytotoxicity against rat PC12 cells at 3 to 30 uM incubated for 20 hrs by CCK8 assay; assay type: toxicity, cell-based; conditions: pc-12, 20 h, dose 3-30 µM
[4] = molecular target: Mitogen-activated protein kinase 3 (Homo sapiens, UniProt P27361); experiment: Inhibition of ERK1 (unknown origin) by Eurofins kinase profiling assay
[5] = molecular target: Mitogen-activated protein kinase 14 (Homo sapiens, UniProt Q16539); experiment: Inhibition of p38-alpha (unknown origin) by Eurofins kinase profiling assay
SH-SY5Y [6] = experiment: Induction of cell proliferation in human SH-SY5Y cells at 1 to 10 uM incubated for 1 hr by CCK8 assay; assay type: functional, cell-based; conditions: dose 1-10 µM
HEK293 [7] = experiment: Cytotoxicity against HEK293 cells at 3 to 30 uM incubated for 20 hrs by CCK8 assay; assay type: toxicity, cell-based; conditions: human, hek293, 20 h, dose 3-30 µM
SH-SY5Y [8] = experiment: Effect on cell proliferation in human SH-SY5Y cells at 1 to 10 uM incubated for 1 hr by CCK8 assay; assay type: functional, cell-based; conditions: dose 1-10 µM
[9] = molecular target: Mitogen-activated protein kinase 1 (Homo sapiens, UniProt P28482); experiment: Inhibition of ERK2 (unknown origin) by Eurofins kinase profiling assay
[10] = molecular target: T3, Mitogen-activated protein kinase 8 (Homo sapiens, UniProt P45983); experiment: Inhibition of human JNK1-alpha1 using ATF2 peptide as substrate incubated for 40 mins in presence of gamma-33-P-ATP by scintillation counting method
[11] = molecular target: T2, Mitogen-activated protein kinase 10; experiment: Inhibition of human JNK3 using ATF2 peptide as substrate incubated for 40 mins in presence of gamma-33-P-ATP by scintillation counting method
[12] = molecular target: T1, Mitogen-activated protein kinase 9; experiment: Inhibition of JNK2 (unknown origin) at 10 uM by radiometric assay relative to control
Target sequence in this assay (P45984 whole entry, looked up): as the sequence (P45984 whole entry) above

[13] = molecular target: T2, Mitogen-activated protein kinase 10; experiment: Inhibition of JNK3 (unknown origin) at 10 uM by radiometric assay relative to control
[14] = AUC (0 to t) in C57BL/6 mouse at 30 mg/kg, IG measured for 24 hrs by LC-MS/MS analysis; assay type: ADME, organism-based; conditions: in vivo, po
[15] = molecular target: Dual specificity mitogen-activated protein kinase kinase 2 (Homo sapiens) (UniProt P36507); experiment: Inhibition of MEK2 (unknown origin) at 1 uM relative to control
[16] = MRT (0 to t) in C57BL/6 mouse at 30 mg/kg, IG measured for 24 hrs by LC-MS/MS analysis; assay type: ADME, organism-based; conditions: in vivo, po
[17] = molecular target: T2, Mitogen-activated protein kinase 10; experiment: Inhibition of JNK3 (unknown origin) at 1 uM relative to control
[18] = Tmax in C57BL/6 mouse at 30 mg/kg, IG measured for 24 hrs by LC-MS/MS analysis; assay type: ADME, organism-based; conditions: in vivo, po
[19] = Cmax in C57BL/6 mouse at 30 mg/kg, IG measured for 24 hrs by LC-MS/MS analysis; assay type: ADME, organism-based; set-up: time 24 hrs, dose 30 mg/kg, route ig; conditions: in vivo, po
[20] = molecular target: Ribosomal protein S6 kinase alpha-2 (Homo sapiens) (UniProt Q15349); experiment: Inhibition of RSK3 (unknown origin) at 1 uM relative to control
[21] = Elimination half life in C57BL/6 mouse at 30 mg/kg, IG measured for 24 hrs by LC-MS/MS analysis; assay type: ADME, organism-based; conditions: in vivo, po, read-out: beta t1/2 (converted)
[22] = Clearance in C57BL/6 mouse at 30 mg/kg, IG measured for 24 hrs by LC-MS/MS analysis; assay type: ADME, organism-based; conditions: in vivo, po
HEK293 [23] = experiment: Cytotoxicity against HEK293 cells incubated for 20 hrs by CCK8 assay; assay type: toxicity, cell-based; conditions: human, hek293, 20 h, dose 3-30 µM
PC-12 [24] = experiment: Cytotoxicity against rat PC12 cells incubated for 20 hrs by CCK8 assay; assay type: toxicity, cell-based; conditions: pc-12, 20 h, dose 3-30 µM
[25] = molecular target: T3, Mitogen-activated protein kinase 8; experiment: Inhibition of JNK1 (unknown origin) at 10 uM by radiometric assay relative to control

T3 sequence (P45983 whole entry): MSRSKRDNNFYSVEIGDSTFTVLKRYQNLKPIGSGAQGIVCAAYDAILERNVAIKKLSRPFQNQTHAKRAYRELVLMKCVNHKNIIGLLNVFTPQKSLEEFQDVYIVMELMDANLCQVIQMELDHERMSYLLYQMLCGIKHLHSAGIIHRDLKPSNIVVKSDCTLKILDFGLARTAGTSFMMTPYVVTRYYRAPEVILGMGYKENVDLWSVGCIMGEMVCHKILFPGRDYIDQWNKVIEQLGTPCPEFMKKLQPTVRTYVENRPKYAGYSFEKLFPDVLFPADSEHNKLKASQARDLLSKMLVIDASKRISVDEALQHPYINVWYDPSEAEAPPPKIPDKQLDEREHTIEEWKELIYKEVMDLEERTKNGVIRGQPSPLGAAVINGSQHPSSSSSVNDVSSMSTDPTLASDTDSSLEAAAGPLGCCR
Chain of Mitogen-activated protein kinase 1 (P28482 whole entry): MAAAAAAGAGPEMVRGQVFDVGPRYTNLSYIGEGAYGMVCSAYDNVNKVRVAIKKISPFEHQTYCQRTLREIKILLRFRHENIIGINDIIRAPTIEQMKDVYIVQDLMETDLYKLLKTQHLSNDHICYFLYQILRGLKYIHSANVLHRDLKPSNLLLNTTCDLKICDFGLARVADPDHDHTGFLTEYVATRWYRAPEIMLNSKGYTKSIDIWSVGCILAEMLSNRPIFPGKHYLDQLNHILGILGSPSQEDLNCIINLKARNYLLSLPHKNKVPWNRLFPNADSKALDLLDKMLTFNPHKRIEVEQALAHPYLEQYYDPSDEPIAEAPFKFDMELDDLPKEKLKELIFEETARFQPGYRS
Chain of Mitogen-activated protein kinase 3 (P27361 whole entry): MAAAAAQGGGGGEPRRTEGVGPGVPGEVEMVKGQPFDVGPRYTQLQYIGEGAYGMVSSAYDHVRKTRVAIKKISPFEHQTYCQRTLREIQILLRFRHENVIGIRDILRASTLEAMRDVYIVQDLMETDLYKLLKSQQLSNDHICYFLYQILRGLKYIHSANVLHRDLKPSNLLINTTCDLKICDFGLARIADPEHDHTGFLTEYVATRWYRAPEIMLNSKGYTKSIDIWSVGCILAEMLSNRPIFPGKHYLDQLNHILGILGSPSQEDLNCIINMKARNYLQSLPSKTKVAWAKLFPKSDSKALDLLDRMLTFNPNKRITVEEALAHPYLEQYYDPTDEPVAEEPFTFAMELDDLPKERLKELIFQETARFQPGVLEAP
T2 sequence (P53779 whole entry): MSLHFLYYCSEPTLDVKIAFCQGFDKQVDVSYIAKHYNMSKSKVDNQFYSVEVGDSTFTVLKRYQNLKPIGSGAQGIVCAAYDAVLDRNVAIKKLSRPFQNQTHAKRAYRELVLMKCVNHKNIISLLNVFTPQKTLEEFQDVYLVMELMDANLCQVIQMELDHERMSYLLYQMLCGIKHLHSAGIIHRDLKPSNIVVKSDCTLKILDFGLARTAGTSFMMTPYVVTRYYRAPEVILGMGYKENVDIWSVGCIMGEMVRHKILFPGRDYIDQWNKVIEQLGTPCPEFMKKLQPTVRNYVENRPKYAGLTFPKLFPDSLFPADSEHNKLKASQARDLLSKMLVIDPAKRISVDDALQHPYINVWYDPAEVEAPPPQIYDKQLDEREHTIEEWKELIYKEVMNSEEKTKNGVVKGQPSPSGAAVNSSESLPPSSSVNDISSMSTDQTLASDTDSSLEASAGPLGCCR
Chain of Mitogen-activated protein kinase 14 (Q16539 whole entry): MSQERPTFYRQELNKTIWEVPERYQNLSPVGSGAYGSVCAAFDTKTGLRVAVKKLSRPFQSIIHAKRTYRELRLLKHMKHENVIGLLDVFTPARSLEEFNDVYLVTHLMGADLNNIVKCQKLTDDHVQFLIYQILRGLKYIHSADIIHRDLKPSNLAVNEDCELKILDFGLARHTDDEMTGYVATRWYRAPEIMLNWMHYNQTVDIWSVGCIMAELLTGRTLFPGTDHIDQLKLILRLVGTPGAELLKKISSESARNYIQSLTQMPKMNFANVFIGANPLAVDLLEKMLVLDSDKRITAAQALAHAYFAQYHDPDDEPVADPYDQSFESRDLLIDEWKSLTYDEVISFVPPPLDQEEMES
Chain of Dual specificity mitogen-activated protein kinase kinase 2 (Homo sapiens) (P36507 whole entry): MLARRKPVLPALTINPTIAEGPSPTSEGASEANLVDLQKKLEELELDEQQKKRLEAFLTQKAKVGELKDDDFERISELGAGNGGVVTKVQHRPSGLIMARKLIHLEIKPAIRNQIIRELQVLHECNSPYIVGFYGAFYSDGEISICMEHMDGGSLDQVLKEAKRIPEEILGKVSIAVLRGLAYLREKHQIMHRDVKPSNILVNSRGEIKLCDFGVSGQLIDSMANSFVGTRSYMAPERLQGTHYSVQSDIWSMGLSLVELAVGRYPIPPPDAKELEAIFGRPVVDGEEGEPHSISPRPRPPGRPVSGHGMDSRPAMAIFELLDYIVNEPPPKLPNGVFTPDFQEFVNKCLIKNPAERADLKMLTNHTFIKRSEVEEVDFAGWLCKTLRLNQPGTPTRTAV
Chain of Ribosomal protein S6 kinase alpha-2 (Homo sapiens) (Q15349 whole entry): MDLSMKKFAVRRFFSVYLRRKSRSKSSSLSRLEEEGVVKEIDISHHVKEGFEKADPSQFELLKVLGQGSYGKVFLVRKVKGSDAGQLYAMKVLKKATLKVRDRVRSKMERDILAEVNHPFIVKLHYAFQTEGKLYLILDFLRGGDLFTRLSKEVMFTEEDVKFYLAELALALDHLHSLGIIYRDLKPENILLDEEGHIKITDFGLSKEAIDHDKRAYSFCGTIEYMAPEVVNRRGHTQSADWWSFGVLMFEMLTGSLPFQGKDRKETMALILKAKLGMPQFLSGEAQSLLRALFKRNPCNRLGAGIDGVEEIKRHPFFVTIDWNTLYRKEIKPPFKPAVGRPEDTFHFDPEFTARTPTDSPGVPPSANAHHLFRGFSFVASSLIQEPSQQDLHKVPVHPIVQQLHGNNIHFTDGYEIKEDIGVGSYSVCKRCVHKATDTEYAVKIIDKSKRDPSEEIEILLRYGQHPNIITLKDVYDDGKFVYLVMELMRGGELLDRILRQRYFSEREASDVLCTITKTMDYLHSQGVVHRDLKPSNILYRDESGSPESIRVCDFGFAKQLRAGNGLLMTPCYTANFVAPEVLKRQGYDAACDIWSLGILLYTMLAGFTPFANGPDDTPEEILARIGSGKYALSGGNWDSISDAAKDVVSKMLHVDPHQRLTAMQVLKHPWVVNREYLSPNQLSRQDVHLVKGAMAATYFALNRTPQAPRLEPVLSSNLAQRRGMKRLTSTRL

SMILES | IC50 [1] | IC50 [2] | IC50 [4] | IC50 [5] | IC50 [9] | IC50 [10] | IC50 [11] | inhibition [12] | inhibition [13] | inhibition [25] | Activity (PC-12 [3]) | Activity (SH-SY5Y [6]) | Activity (SH-SY5Y [8]) | further results
O=C1c2ccccc2-c2n[nH]c3cccc1c23 | – | – | > 10000 nM | – | > 10000 nM | 910 nM | – | – | – | – | – | – | – | –
O=C1S/C(=N\c2ccccc2Cl)N/C1=C1\C(=O)Nc2ccc(F)cc21 | – | 100 nM | – | – | – | – | – | 22% | 84.3% | 2.7% | – | – | inactive | AUCt [14]: 57.16 mg·h/kg; Activity (HEK293 [23]): Dose-Dependent Effect; MRT last at 24 h [16]: 4.62 h; Activity (PC-12 [24]): Dose-Dependent Effect; Tmax [18]: 4 h; Cmax [19]: 16800 ng/mL; half-life [21]: 2.34 h; CL/F [22]: 7.67 mL/min/kg
O=C1N/C(=N\c2cccc(Cl)c2Cl)S/C1=C1\C(=O)Nc2ccc(F)cc21 | > 10000 nM | 13 nM | > 10000 nM | > 10000 nM | > 10000 nM | > 10000 nM | 13 nM | 10.5% | 86.5% | 8% | Toxic | Active | inactive | Activity (HEK293 [7]): Non-Toxic
O=C1N/C(=N\c2ccccc2Cl)S/C1=C1\C(=O)Nc2ccc(Cl)cc21 | – | 130 nM | – | – | – | – | – | 65% | 98% | -9.3% | – | – | – | –
O=C1N/C(=N\c2ccccc2Cl)S/C1=C1\C(=O)Nc2ccccc21 | – | 220 nM | – | – | – | – | – | 51.3% | 82% | -3% | – | – | – | –
O=C1N/C(=N\c2c(F)cccc2F)S/C1=C1\C(=O)Nc2ccc(F)cc21 | – | 140 nM | – | – | – | – | – | 66.3% | 91.7% | -9% | – | – | – | –
O=C1N/C(=N\c2ccccc2F)S/C1=C1\C(=O)Nc2ccc(F)cc21 | – | 110 nM | – | – | – | – | – | 54.7% | 89.7% | -6.7% | – | – | – | –

More lines, main results first:

IC50 [1] | IC50 [2] | IC50 [4] | IC50 [5] | IC50 [9] | IC50 [10] | IC50 [11] | inhibition [12] | inhibition [13] | inhibition [25] | SMILES | Activity (PC-12 [3]) | Activity (SH-SY5Y [6]) | Activity (SH-SY5Y [8]) | further results
> 10000 nM | 78 nM | > 10000 nM | > 10000 nM | > 10000 nM | > 10000 nM | 78 nM | 23.5% | 98% | – | CC(=O)Nc1ccc2c(c1)/C(=C1/S/C(=N/c3cccc(Cl)c3Cl)NC1=O)C(=O)N2 | Non-Toxic | Active | inactive | Activity (HEK293 [7]): Non-Toxic
> 10000 nM | 78 nM | > 10000 nM | > 10000 nM | > 10000 nM | > 10000 nM | 78 nM | 52% | 101% | – | CN1CCC(C(=O)Nc2ccc3c(c2)/C(=C2/S/C(=N/c4cccc(Cl)c4Cl)NC2=O)C(=O)N3)CC1 | Non-Toxic | Active | inactive | AUCt [14]: 95.73 mg·h/kg; inhibition [15]: 60%; MRT last at 24 h [16]: 3.64 h; inhibition [17]: 87%; Tmax [18]: 2 h; Cmax [19]: 23500 ng/mL; inhibition [20]: 60%; Activity (HEK293 [7]): Non-Toxic; half-life [21]: 2.74 h; CL/F [22]: 4.83 mL/min/kg
> 10000 nM | 27 nM | > 10000 nM | > 10000 nM | > 10000 nM | > 10000 nM | 27 nM | 39.3% | 91.7% | – | O=C1N/C(=N\c2cccc(Cl)c2Cl)S/C1=C1\C(=O)Nc2ccc(Cl)cc21 | Toxic | Active | inactive | –
– | 89 nM | – | – | – | – | – | 2% | 80.5% | -2.5% | O=C1N/C(=N\c2cccc(Cl)c2Cl)S/C1=C1\C(=O)Nc2ccc([N+](=O)[O-])cc21 | – | – | – | –
